Data: patent US6706709B2, “Indolinone derivatives as protein kinase/phosphatase inhibitors” (Sugen, Inc., priority 2000, dated 2004)

Legend:
[1] = biological target: GST-Flk1 (UniProt P35918); assay: GST-FLK-1 bioassay (bio flkGST); assay type: biochemical
Procedure: This assay analyzes the tyrosine kinase activity of GST-Flk1 on poly glu tyr peptides.
2. poly glu tyr 4:1, lyophilizate (Sigma Catalog # P0275). Prepare 1 mg/mL poly glu tyr in sterile PBS and store in 1 ml aliquots at −20° C.
3. Preparation of poly glu tyr (pEY) coated assay plates: Coat 2 μg/well of poly glu tyr (pEY) in 100 μL PBS at room temperature for 2 hours or at +4° C. overnight. Cover plates well to prevent evaporation.
4. PBS Buffer: To make 1 liter of a 1× working solution, mix […], 1.15 g NA2HPO4, 0.2 g KCl and 8 g NaCl in approx. 900 mL dH2O. When all reagents have dissolved, adjust the pH to 7.2 with HCl. Bring total volume to 1L with dH2O.
5. PBS-Tw Buffer: To 1L of PBS Buffer, add […] Tween-20. Stir until dissolved.
6. TBB-Blocking Buffer: To make one liter of a 1× working solution, mix 1.21 g TRIS, 8.77 g NaCl, 1 mL TWEEN-20 in approximately 900 mL dH2O. Adjust pH to 7.2 with HCl. Add 10 g BSA, stir to dissolve. Bring total volume to 1 L with dH2O. Filter to remove particulate matter.
7. 1% BSA in PBS: To make a 1× working solution, add 10 g BSA to approx. 990 mL PBS buffer, stir to dissolve. Adjust total volume to 1 L with PBS buffer, filter to remove particulate matter.
9. GST-Flk1cd purified from sf9 recombinant baculovirus transformation.
13. Kinase Dilution Buffer (KDB): Mix 10 mL Hepes (pH 7.5), 1 mL of 5 M NaCl, 40 μL of 100 mM NaVO4 and 0.4 mL of 5% BSA in dH2O with 88.56 mL of dH2O.
14. NUNC-96-well V bottom polypropylene plates Applied Scientific Catalog # AS-72092
15. EDTA: Mix 14.12 g ethylenediaminetetraacetic acid (EDTA) to approx. 70 mL dH2O. Add 10N NaOH until EDTA dissolves. Adjust pH to 8.0. Adjust total volume to 100 mL with dH2O.
16. 1° Antibody Dilution Buffer: Mix 10 mL of 5% BSA in PBS buffer with 89.5 mL TBSTw.
17. Anti-phosphotyrosine monoclonal conjugated to horseradish peroxidase (PY99 HRP, Santa Cruz Biotech).
18. 2,2′-Azino-bis(3-ethylbenzthiazoline-6-sulfonic acid (ABTS, Moss, Cat. No. ABST).
1. Coat Corning 96 well ELISA plates with 2 μg of polyEY peptide in sterile PBS as described in step 3 of Materials and Reagents.
2. Remove unbound liquid from wells by inverting plate. Wash once with TBSTw. Pat the plate on a paper towel to remove excess liquid.
3. Add 100 μL of 1% BSA in PBS to each well. Incubate, with shaking, for 1 hr. at room temperature.
5. Soak wells with 50 mM Hepes pH7.5 (150 μL/well).
6. Dilute test compound with dH2O/4% DMSO to 4 times the desired final assay concentration in 96-well polypropylene plates.
7. Add 25 μL diluted test compound to ELISA plate.
8. Add 25 μL of 40 mM MnCl2 with 4×ATP (2 μM) to all wells.
9. Add 25 μL 0.5 M EDTA to negative control wells.
10. Dilute GST-Flk1 0.005 μg (5 ng)/well in KDB. For 50 ml KDB add 100 μL of 0.050 mg/mL GST-Flk1 enzyme.
11. Add 50 μL of diluted enzyme to each well.
12. Incubate, with shaking, for 15 minutes at room temperature.
13. Stop reaction by adding 50 μL of 250 mM EDTA (pH 8.0).
14. Wash 3× with TBSTw and pat plate on paper towel to remove excess liquid.
15. Add 100 μL per well anti-phosphotyrosine HRP conjugate, 1:5,000 dilution in antibody dilution buffer. Incubate, with shaking for 90 min. at room temperature.
16. Wash as described above in step 14.
17. Add 100 μL of room temperature ABTS solution to each well.
18. Incubate, with shaking, for 10 to 15 minutes. Remove any bubbles.
19. Stop reaction by adding 20 μL of 10% SDS.
20. Read assay on Dynatech MR7000 ELISA reader: test filter at 410 nM; reference filter at 630 nM.

[2] = biological target: T1, EGF Receptor (Homo sapiens, UniProt P00533); assay: bio EGF (EGF Receptor ELISA); assay type: biochemical
T1 construct: expressed in transfected cells; host or cells: NIH 3T3/C7 (mouse fibroblasts engineered to express human EGF-R)
Procedure: EGF Receptor kinase activity in cells genetically engineered to express human EGF-R was measured as described below:
The following materials and reagents were used:
b. 05-101 (UBI) (a monoclonal antibody recognizing an EGFR extracellular domain).
c. Anti-phosphotyrosine antibody (anti-Ptyr) (polyclonal).
d. Detection antibody: Goat anti-rabbit lgG horse radish peroxidase conjugate, TAGO, Inc., Burlingame, Calif.
Keep solution in dark at 4° C. until used.
The following protocol was used:
1. […] Coated plates are good for up to 10 days when stored at 4° C.
2. On day of use, remove coating buffer and replace with blocking buffer (5% Carnation Instant Non-Fat Dry Milk in PBS). Incubate the plate, shaking, at room temperature (about 23° C. to 25° C.) for 30 minutes. Just prior to use, remove blocking buffer and wash plate 4 times with TBST buffer.
2. Choose dishes having 80-90% confluence for the experiment. Trypsinize cells and stop reaction by adding 10% CS DMEM medium. Suspend cells in DMEM medium (10% CS DMEM medium) and centrifuge once at 1000 rpm at room temperature for 5 minutes.
3. Resuspend cells in seeding medium (DMEM, 0.5% bovine serum), and count the cells using trypan blue. Viability above 90% is acceptable. Seed cells in DMEM medium (0.5% bovine serum) at a density of 10,000 cells per well, 100 μL per well, in a 96 well microtiter plate. Incubate seeded cells in 5% CO2 at 37° C. for about 40 hours.
1. Check seeded cells for contamination using an inverted microscope. Dilute drug stock (10 mg/ml in DMSO) 1:10 in DMEM medium, then transfer 5 μL to a test well for a final drug dilution of 1:200 and a final DMSO concentration of 1%. Control wells receive DMSO alone. Incubate in 5% CO2 at 37° C. for one hour.
2. Prepare EGF ligand: dilute stock EGF in DMEM so that upon transfer of 10 μL dilute EGF (1:12 dilution), 25 nM final concentration is attained.
3. Prepare fresh 10 ml HNTG* sufficient for 100 μL per well wherein HNTG* comprises: HNTG stock (2.0 mL), milli-Q H2O (7.3 mL), EDTA, 100 mM, pH 7.0 (0.5 mL), Na3VO4 0.5 M (0.1 mL) and Na4(P2O7), 0.2 M (0.1 mL).
5. After two hours incubation with drug, add prepared EGF ligand to cells, 10 μL per well, to yield a final concentration of 25 nM. Control wells receive DMEM alone. Incubate, shaking, at room temperature, for 5 minutes.
6. Remove drug, EGF, and DMEM. Wash cells twice with PBS. Transfer HNTG* to cells, 100 μL per well. Place on ice for 5 minutes. Meanwhile, remove blocking buffer from other ELISA plate and wash with TBST as described above.
7. With a pipette tip securely fitted to a micropipettor, scrape cells from plate and homogenize cell material by repeatedly aspirating and dispensing the HNTG* lysis buffer. Transfer lysate to a coated, blocked, and washed ELISA plate. Incubate shaking at room temperature for one hour.
8. Remove lysate and wash 4 times with TBST. Transfer freshly diluted anti-Ptyr antibody to ELISA plate at 100 μL per well. Incubate shaking at room temperature for 30 minutes in the presence of the anti-Ptyr antiserum (1:3000 dilution in TBST).
9. Remove the anti-Ptyr antibody and wash 4 times with TBST. Transfer the freshly diluted TAGO 30 anti-rabbit IgG antibody to the ELISA plate at 100 μL per well. Incubate shaking at room temperature for 30 minutes (anti-rabbit IgG antibody: 1:3000 dilution in TBST).
10. Remove detection antibody and wash 4 times with TBST. Transfer freshly prepared ABTS/H2O2 solution to ELISA plate, 100 μL per well. Incubate at room temperature for 20 minutes. ABTS/H2O2 solution: 1.2 μL 30% H2O2in 10 mL ABTS stock.
11. Stop reaction by adding 50 μL 5N H2SO4 (optional), and determine O.D. at 410 nm.
12. The maximal phosphotyrosine signal is determined by subtracting the value of the negative controls from the positive controls. The percent inhibition of phosphotyrosine content for extract-containing wells is then calculated, after subtraction of the negative controls.

T1 sequence (P00533 25-1210): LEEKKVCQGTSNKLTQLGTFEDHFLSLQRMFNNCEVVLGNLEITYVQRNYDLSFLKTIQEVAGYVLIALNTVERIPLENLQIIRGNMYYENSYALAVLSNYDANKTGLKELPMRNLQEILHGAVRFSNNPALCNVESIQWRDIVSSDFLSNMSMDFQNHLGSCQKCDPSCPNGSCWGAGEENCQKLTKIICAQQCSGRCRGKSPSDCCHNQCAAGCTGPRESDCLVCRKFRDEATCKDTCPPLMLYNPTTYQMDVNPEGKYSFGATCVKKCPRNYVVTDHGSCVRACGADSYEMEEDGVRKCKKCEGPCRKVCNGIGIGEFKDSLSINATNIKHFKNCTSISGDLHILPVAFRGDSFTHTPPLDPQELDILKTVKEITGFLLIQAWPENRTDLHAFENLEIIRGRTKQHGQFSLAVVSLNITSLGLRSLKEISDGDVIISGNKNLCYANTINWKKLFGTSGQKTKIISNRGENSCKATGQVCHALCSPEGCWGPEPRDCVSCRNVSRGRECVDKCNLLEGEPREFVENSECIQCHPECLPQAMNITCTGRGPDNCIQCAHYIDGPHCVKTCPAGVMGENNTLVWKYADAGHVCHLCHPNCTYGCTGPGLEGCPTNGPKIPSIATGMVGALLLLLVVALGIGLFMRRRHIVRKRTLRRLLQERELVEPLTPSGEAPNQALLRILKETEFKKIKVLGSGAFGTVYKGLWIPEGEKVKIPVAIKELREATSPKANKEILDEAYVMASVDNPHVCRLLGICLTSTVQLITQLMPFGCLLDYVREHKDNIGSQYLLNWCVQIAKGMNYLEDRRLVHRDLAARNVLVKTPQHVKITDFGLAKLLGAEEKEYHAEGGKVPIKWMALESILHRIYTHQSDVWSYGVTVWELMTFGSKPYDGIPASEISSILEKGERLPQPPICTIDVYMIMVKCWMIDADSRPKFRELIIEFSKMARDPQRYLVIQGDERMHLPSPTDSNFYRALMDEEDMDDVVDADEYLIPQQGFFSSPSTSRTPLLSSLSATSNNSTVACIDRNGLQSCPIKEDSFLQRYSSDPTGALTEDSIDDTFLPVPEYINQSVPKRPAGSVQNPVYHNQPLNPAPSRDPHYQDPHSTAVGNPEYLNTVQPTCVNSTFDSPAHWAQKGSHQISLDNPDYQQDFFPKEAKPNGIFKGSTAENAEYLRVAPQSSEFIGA

SMILES | IC50 [1] | IC50 [2]
CCN(CC)CCCc1ccc2[nH]c(C=C3C(=O)Nc4cc(-c5ccccc5)ccc43)cc2c1 [IN-003, 3-[5-(3-diethylamino-propyl)-1H-indol-2-ylmethylene]-6-phenyl-1,3-dihydro-indol-2-one] | 1560 nM | 61.3 µM
O=C1Nc2ccccc2C1=Cc1cc2cc(OCCN3CCCC3)ccc2[nH]1 [IN-013, 3-[5-(2-pyrrolidin-1-yl-ethoxy)-1H-indol-2-ylmethylene]-1,3-dihydro-indol-2-one] | 100 nM | 41.3 µM
O=C1Nc2ccccc2C1=Cc1cc2cc(OCCN3CCOCC3)ccc2[nH]1 [IN-007, 3-[5-(2-morpholin-4-yl-ethoxy)-1H-indol-2-ylmethylene]-1,3-dihydro-indol-2-one] | 400 nM | 37.4 µM
CN(C)CCOc1ccc2[nH]c(C=C3C(=O)Nc4ccc(Br)cc43)cc2c1 [IN-011, 5-bromo-3-[5-(2-dimethylamino-ethoxy)-1H-indol-2-ylmethylene]-1,3-dihydro-indol-2-one] | 520 nM | 1.36 µM
CN(C)S(=O)(=O)c1ccc2c(c1)C(=Cc1cc3cc(OCCN4CCCC4)ccc3[nH]1)C(=O)N2 [IN-042, 2-oxo-3-[5-(2-pyrrolidin-1-yl-ethoxy)-1H-indol-2-ylmethylene]-2,3-dihydro-1H-indole-5-sulfonic acid dimethylamide] | 1340 nM | 7.84 µM
CN(C)CCOc1ccc2[nH]c(C=C3C(=O)Nc4cc(-c5ccccc5)ccc43)cc2c1 [IN-012, 3-[5-(2-dimethylamino-ethoxy)-1H-indol-2-ylmethylene]-6-phenyl-1,3-dihydro-indol-2-one] | 1950 nM | > 100 µM
O=C1Nc2ccc(S(=O)(=O)Nc3ccccc3)cc2C1=Cc1cc2cc(OCCN3CCCC3)ccc2[nH]1 [IN-044, 2-oxo-3-[5-(2-pyrrolidin-1-yl-ethoxy)-1H-indol-2-ylmethylene]-2,3-dihydro-1H-indole-5-sulfonic acid phenylamide] | 180 nM | 1.69 µM
O=C1Nc2cc(C(=O)O)ccc2C1=Cc1cc2cc(OCCN3CCCC3)ccc2[nH]1 [IN-023, 2-oxo-3-[5-(2-pyrrolidin-1-yl-ethoxy)-1H-indol-2-ylmethylene]-2,3-dihydro-1H-indole-6-carboxylic acid] | 240 nM | > 20 µM
O=C1Nc2ccc(S(=O)(=O)Nc3ccc(Cl)cc3F)cc2C1=Cc1cc2cc(OCCN3CCCC3)ccc2[nH]1 [IN-049, 2-oxo-3-[5-(2-pyrrolidin-1-yl-ethoxy)-1H-indol-2-ylmethylene]-2,3-dihydro-1H-indole-5-sulfonic acid (4-chloro-2-fluoro-phenyl)-amide] | 130 nM | 4.38 µM

Now from value to compound:

IC50 [1] | IC50 [2] | SMILES
8550 nM | > 20 µM | CN(c1cccc(Cl)c1)S(=O)(=O)c1ccc2c(c1)C(=Cc1cc3cc(OCCN4CCOCC4)ccc3[nH]1)C(=O)N2 [IN-060, 3-[5-(2-morpholin-4-yl-ethoxy)-1H-indol-2-ylmethylene]-2-oxo-2,3-dihydro-1H-indole-5-sulfonic acid (3-chloro-phenyl)-methyl-amide]
11500 nM | 22 µM | CNS(=O)(=O)c1ccc2c(c1)C(=Cc1cc3ccccc3[nH]1)C(=O)N2 [IN-071, 3-(1H-indol-2-ylmethylene)-2-oxo-2,3-dihydro-1H-indole-5-sulfonic acid methylamide]
1020 nM | 1.16 µM | O=C1Nc2ccc(S(=O)(=O)N3CCc4cc(Br)ccc43)cc2C1=Cc1cc2cc(OCCN3CCCC3)ccc2[nH]1 [IN-052, 5-(5-bromo-2,3-dihydro-indole-1-sulfonyl)-3-[5-(2-pyrrolidin-1-yl-ethoxy)-1H-indol-2-ylmethylene]-1,3-dihydro-indol-2-one]
2330 nM | > 100 µM | CNS(=O)(=O)c1ccc2c(c1)C(=Cc1ccc3[nH]ccc3c1)C(=O)N2 [IN-070, 3-(1H-indol-5-ylmethylene)-2-oxo-2,3-dihydro-1H-indole-5-sulfonic acid methylamide]
1210 nM | 15.2 µM | CNS(=O)(=O)c1ccc2c(c1)C(=Cc1cc3cc(OCCN4CCOCC4)ccc3[nH]1)C(=O)N2 [IN-053, 3-[5-(2-morpholin-4-yl-ethoxy)-1H-indol-2-ylmethylene]-2-oxo-2,3-dihydro-1H-indole-5-sulfonic acid methylamide]
